Source: patent US20240254156A1, “NOVEL ISOFLAVONE COMPOUND” (NABOCUL COSMETICS CO., LTD., priority 2021, published 2024)

How the values were obtained:
aquaporin 3 (AQP3) gene = assay: aquaporin 3 gene mRNA expression in HaCaT cells (QPCR); type: cell-based, human
Procedure: (§1) The Ceratonia siliqua C obtained in Example 2 was used to examine the effect of the Ceratonia siliqua C on the expression of aquaporin 3 (AQP3) gene and filaggrin 2 (FLG2) gene in a HaCaT cell, a human epidermis-derived keratinocyte cell line.
(§2) First, the HaCaT cells were cultured in a DMEM medium (containing 10% FBS, 100 U/mL penicillin and […] streptomycin) in the presence of 5% CO2 at 37° C. and saturated humidity. Next, the HaCaT cells adjusted to a cell concentration of 5×10^5 cells/mL were seeded in each well of a 6-well cell culture plate and cultured in a CO2 incubator (5% CO2, 37° C.) for 24 hours. Thereafter, the Ceratonia siliqua C isolated in Example 2 was added to each well to provide a final concentration different from each other. Specifically, the final concentrations of Ceratonia siliqua C in the HaCaT cell culture medium were 1 μM, 5 μM, 10 μM, 50 μM and 100 μM, respectively. A well without the Ceratonia siliqua C added was used as a control (0 μM). After addition, they were subjected to culture for 24 hours.
(§3) After completion of the culture, the HaCaT cells were collected from each well, and total RNA was extracted with an RNA extraction reagent (RNAzol®, a product available from Molecular Research Center, Inc.). […]

[1] = tested on: IL-6 production in RAW264.7 cells; assay: LPS-induced IL-6 production in RAW264.7 cells (ELISA); type: cell-based, mouse; conditions: 1, 5, 10, 50 and 100 μM, added 3 h before LPS 1 μg/mL, supernatant after 24 h, FIG. 11
Procedure: The Ceratonia siliqua C obtained in Example 2 was used to examine the effect of the Ceratonia siliqua C on the production of IL-6 that is an inflammatory cytokine.
In this test, an RAW264.7 cell, a mouse macrophage-derived cell line was used. RAW264.7 cells were cultured in a DMEM medium (containing 10% FBS, 100 U/mL penicillin and […] streptomycin) in the presence of 5% CO2 at 37° C. and saturated humidity.
Each well of a 96-well plate was seeded with 8×10^3 RAW264.7 cells, and the cells were cultured in a CO2 incubator for 24 hours. This was divided into a blank control group, a positive control group and a test group. A 100 μL portion of a DMEM medium was added to each well of the blank control group; a 100 μL portion of a solution of dexamethasone (DXM) dissolved in the DMEM medium was added to each well of the positive control group (a final concentration of dexamethasone: 20 μM); and a 100 μL portion of each of solutions obtained by appropriately diluting the Ceratonia siliqua C with the DMEM medium was added to each well of the test group to provide a different concentration from each other (final concentration: 1 μM, 5 μM, 10 μM, 50 μM and 100 μM). 3 hours later, LPS (1 μg/mL) was added to each well to induce inflammation. 24 hours later, the supernatant was collected and the IL-6 content in the supernatant was measured with an IL-6 quantitative ELISA kit. […]

filaggrin 2 (FLG2) gene = assay: filaggrin 2 gene mRNA expression in HaCaT cells (QPCR); type: cell-based, human
Procedure: as §1, §2, §3

[2] = 10 μM (highest expression promoting effect), 24 h, relative to control

## COc1ccc(-c2coc3c(OC)c(O)c(O[C@@H]4O[C@H](CO)[C@@H](O)[C@H](O)[C@H]4O)cc3c2=O)cc1 [Ceratonia siliqua C]
Aquaporin 3 (AQP3) gene; [2]
  increase of mRNA expression level of aquaporin 3: 2.5 times
Aquaporin 3 (AQP3) gene; 1-100 μM, 24 h culture, FIG. 12
  mRNA expression level of aquaporin 3 compared to the control: greatly increased the mRNA expression level
[1]
  production of IL-6 by LPS induction: inhibit the production of IL-6 in a concentration-dependent manner
Filaggrin 2 (FLG2) gene; [2]
  increase of mRNA expression level of filaggrin 2: 1.35 times
Filaggrin 2 (FLG2) gene; 1-100 μM, 24 h culture, FIG. 13
  mRNA expression level of filaggrin 2 compared to the control: greatly increased the mRNA expression level
